Usually viability, T/C stands for the result in the treated group divided by that in the control group, in per cent.
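Note: spheroids exposed to compounds for seven days; 100% = DMSO vehicle control viability.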

One assay concerns 454973-116-R2-J3-PDC spheroids, viability, % test/control. In words: Anticancer human tumor 454973-116-R2-J3-PDC patient-derived pancreatic carcinoma cell line growth inhibition [GQUAD]. The conditions noted are these: second compound 3.16 µM; first compound 0.1 µM; active compounds read low; spheroids with HUVEC and MSC. The method in brief:
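Tumor cells were grown as complex spheroids with HUVEC endothelial cells and mesenchymal stem cells as stroma. G-quadruplex stabilizers were combined with targeted agents over half-log dilutions from near the clinical Cmax, or from 10 microM.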
As for `COc1ncnc(C2CC2)c1-c1ncc2cnn(Cc3ccc(-c4nc(C(F)(F)F)cn4C(C)C)cc3)c2n1` + CN(C)c1ccc(Nc2c3ccc(NC(=O)CCN4CCCC4)cc3nc3cc(NC(=O)CCN4CCCC4)ccc23)cc1, the viability, T/C is 91.6%.
Same read-out and setting: for `O=C(NO)c1cnc(N2CCN(S(=O)(=O)c3ccc4ccccc4c3)CC2)nc1` + CN(C)c1ccc(Nc2c3ccc(NC(=O)CCN4CCCC4)cc3nc3cc(NC(=O)CCN4CCCC4)ccc23)cc1 the value was 70.8%.

Staying with this assay, now noted: second compound 3.16 µM; first compound 0.316 µM; active compounds read low; spheroids with HUVEC and MSC.
For the compound `C=CCn1c(=O)c2cnc(Nc3ccc(N4CCN(C)CC4)cc3)nc2n1-c1cccc(C(C)(C)O)n1` + CN(C)c1ccc(Nc2c3ccc(NC(=O)CCN4CCCC4)cc3nc3cc(NC(=O)CCN4CCCC4)ccc23)cc1, the viability, T/C was 61.9%.
Same read-out and setting: for `CC(C)(O)C1CCC(Nc2ccc3ncc(-c4cccc(C(F)(F)F)c4)n3n2)CC1` (configuration not stated) + CN(C)c1ccc(Nc2c3ccc(NC(=O)CCN4CCCC4)cc3nc3cc(NC(=O)CCN4CCCC4)ccc23)cc1 the value was 80.2%; for `COc1ncnc(C2CC2)c1-c1ncc2cnn(Cc3ccc(-c4nc(C(F)(F)F)cn4C(C)C)cc3)c2n1` + CN(C)c1ccc(Nc2c3ccc(NC(=O)CCN4CCCC4)cc3nc3cc(NC(=O)CCN4CCCC4)ccc23)cc1, 105%.
Consider `O=C(NO)c1cnc(N2CCN(S(=O)(=O)c3ccc4ccccc4c3)CC2)nc1` + CN(C)c1ccc(Nc2c3ccc(NC(=O)CCN4CCCC4)cc3nc3cc(NC(=O)CCN4CCCC4)ccc23)cc1, for which the viability, T/C is 29.4%.

The same assay, now with this note: second compound 3.16 µM; first compound 1 µM; active compounds read low; spheroids with HUVEC and MSC.
In the case of `C=CCn1c(=O)c2cnc(Nc3ccc(N4CCN(C)CC4)cc3)nc2n1-c1cccc(C(C)(C)O)n1` + CN(C)c1ccc(Nc2c3ccc(NC(=O)CCN4CCCC4)cc3nc3cc(NC(=O)CCN4CCCC4)ccc23)cc1, the viability, T/C was 14.7%.
Turning to `CC(C)(O)C1CCC(Nc2ccc3ncc(-c4cccc(C(F)(F)F)c4)n3n2)CC1` (configuration not stated) + CN(C)c1ccc(Nc2c3ccc(NC(=O)CCN4CCCC4)cc3nc3cc(NC(=O)CCN4CCCC4)ccc23)cc1, the viability, T/C was 39.4%.
Take `COc1ncnc(C2CC2)c1-c1ncc2cnn(Cc3ccc(-c4nc(C(F)(F)F)cn4C(C)C)cc3)c2n1` + CN(C)c1ccc(Nc2c3ccc(NC(=O)CCN4CCCC4)cc3nc3cc(NC(=O)CCN4CCCC4)ccc23)cc1: the viability, T/C was 87%.
On the same count and under the same terms, for `O=C(NO)c1cnc(N2CCN(S(=O)(=O)c3ccc4ccccc4c3)CC2)nc1` + CN(C)c1ccc(Nc2c3ccc(NC(=O)CCN4CCCC4)cc3nc3cc(NC(=O)CCN4CCCC4)ccc23)cc1 the value was 2.84%.

The assay is the same for the next values; noted with them: second compound 3.16 µM; first compound 3.16 µM; active compounds read low; spheroids with HUVEC and MSC.
Turning to `C=CCn1c(=O)c2cnc(Nc3ccc(N4CCN(C)CC4)cc3)nc2n1-c1cccc(C(C)(C)O)n1` + CN(C)c1ccc(Nc2c3ccc(NC(=O)CCN4CCCC4)cc3nc3cc(NC(=O)CCN4CCCC4)ccc23)cc1, the viability, T/C is 8.4%.
Consider `CC(C)(O)C1CCC(Nc2ccc3ncc(-c4cccc(C(F)(F)F)c4)n3n2)CC1` (configuration not stated) + CN(C)c1ccc(Nc2c3ccc(NC(=O)CCN4CCCC4)cc3nc3cc(NC(=O)CCN4CCCC4)ccc23)cc1, for which the viability, T/C is 22.6%.
On the same count and under the same terms, for `COc1ncnc(C2CC2)c1-c1ncc2cnn(Cc3ccc(-c4nc(C(F)(F)F)cn4C(C)C)cc3)c2n1` + CN(C)c1ccc(Nc2c3ccc(NC(=O)CCN4CCCC4)cc3nc3cc(NC(=O)CCN4CCCC4)ccc23)cc1 the value was 93.5%; for `O=C(NO)c1cnc(N2CCN(S(=O)(=O)c3ccc4ccccc4c3)CC2)nc1` + CN(C)c1ccc(Nc2c3ccc(NC(=O)CCN4CCCC4)cc3nc3cc(NC(=O)CCN4CCCC4)ccc23)cc1, 0.54%.

The same assay, now with this note: second compound 3.16 µM; first compound 10 µM; active compounds read low; spheroids with HUVEC and MSC.
`C=CCn1c(=O)c2cnc(Nc3ccc(N4CCN(C)CC4)cc3)nc2n1-c1cccc(C(C)(C)O)n1` + CN(C)c1ccc(Nc2c3ccc(NC(=O)CCN4CCCC4)cc3nc3cc(NC(=O)CCN4CCCC4)ccc23)cc1: the viability, T/C was 12.1%.
On the same count and under the same terms, for `CC(C)(O)C1CCC(Nc2ccc3ncc(-c4cccc(C(F)(F)F)c4)n3n2)CC1` (configuration not stated) + CN(C)c1ccc(Nc2c3ccc(NC(=O)CCN4CCCC4)cc3nc3cc(NC(=O)CCN4CCCC4)ccc23)cc1 the value was 31.6%.
With `COc1ncnc(C2CC2)c1-c1ncc2cnn(Cc3ccc(-c4nc(C(F)(F)F)cn4C(C)C)cc3)c2n1` + CN(C)c1ccc(Nc2c3ccc(NC(=O)CCN4CCCC4)cc3nc3cc(NC(=O)CCN4CCCC4)ccc23)cc1, the viability, T/C is 78.5%.
As to `O=C(NO)c1cnc(N2CCN(S(=O)(=O)c3ccc4ccccc4c3)CC2)nc1` + CN(C)c1ccc(Nc2c3ccc(NC(=O)CCN4CCCC4)cc3nc3cc(NC(=O)CCN4CCCC4)ccc23)cc1, the viability, T/C was 0.91%.

Still in this assay, the particulars now being: second compound 10 µM; first compound 0.0316 µM; active compounds read low; spheroids with HUVEC and MSC.
`C=CCn1c(=O)c2cnc(Nc3ccc(N4CCN(C)CC4)cc3)nc2n1-c1cccc(C(C)(C)O)n1` + CN(C)c1ccc(Nc2c3ccc(NC(=O)CCN4CCCC4)cc3nc3cc(NC(=O)CCN4CCCC4)ccc23)cc1: the viability, T/C is 71.4%.
The same measure, in the same setting: for `CC(C)(O)C1CCC(Nc2ccc3ncc(-c4cccc(C(F)(F)F)c4)n3n2)CC1` (configuration not stated) + CN(C)c1ccc(Nc2c3ccc(NC(=O)CCN4CCCC4)cc3nc3cc(NC(=O)CCN4CCCC4)ccc23)cc1 the value was 62.3%.
Same read-out and setting: the same measure for `COc1ncnc(C2CC2)c1-c1ncc2cnn(Cc3ccc(-c4nc(C(F)(F)F)cn4C(C)C)cc3)c2n1` + CN(C)c1ccc(Nc2c3ccc(NC(=O)CCN4CCCC4)cc3nc3cc(NC(=O)CCN4CCCC4)ccc23)cc1: 71%; for `O=C(NO)c1cnc(N2CCN(S(=O)(=O)c3ccc4ccccc4c3)CC2)nc1` + CN(C)c1ccc(Nc2c3ccc(NC(=O)CCN4CCCC4)cc3nc3cc(NC(=O)CCN4CCCC4)ccc23)cc1: 59.5%.

The same assay, now with this note: second compound 10 µM; first compound 0.1 µM; active compounds read low; spheroids with HUVEC and MSC.
On to `C=CCn1c(=O)c2cnc(Nc3ccc(N4CCN(C)CC4)cc3)nc2n1-c1cccc(C(C)(C)O)n1` + CN(C)c1ccc(Nc2c3ccc(NC(=O)CCN4CCCC4)cc3nc3cc(NC(=O)CCN4CCCC4)ccc23)cc1, for which the viability, T/C is 78.3%.
Turning to `CC(C)(O)C1CCC(Nc2ccc3ncc(-c4cccc(C(F)(F)F)c4)n3n2)CC1` (configuration not stated) + CN(C)c1ccc(Nc2c3ccc(NC(=O)CCN4CCCC4)cc3nc3cc(NC(=O)CCN4CCCC4)ccc23)cc1, the viability, T/C is 64.8%.
On to `COc1ncnc(C2CC2)c1-c1ncc2cnn(Cc3ccc(-c4nc(C(F)(F)F)cn4C(C)C)cc3)c2n1` + CN(C)c1ccc(Nc2c3ccc(NC(=O)CCN4CCCC4)cc3nc3cc(NC(=O)CCN4CCCC4)ccc23)cc1, for which the viability, T/C was 69.4%.
For `O=C(NO)c1cnc(N2CCN(S(=O)(=O)c3ccc4ccccc4c3)CC2)nc1` + CN(C)c1ccc(Nc2c3ccc(NC(=O)CCN4CCCC4)cc3nc3cc(NC(=O)CCN4CCCC4)ccc23)cc1, the viability, T/C was 55.8%.

Still in this assay, the particulars now being: second compound 10 µM; first compound 0.316 µM; active compounds read low; spheroids with HUVEC and MSC.
For the compound `C=CCn1c(=O)c2cnc(Nc3ccc(N4CCN(C)CC4)cc3)nc2n1-c1cccc(C(C)(C)O)n1` + CN(C)c1ccc(Nc2c3ccc(NC(=O)CCN4CCCC4)cc3nc3cc(NC(=O)CCN4CCCC4)ccc23)cc1, the viability, T/C is 57.8%.
Same read-out and setting: the same measure for `CC(C)(O)C1CCC(Nc2ccc3ncc(-c4cccc(C(F)(F)F)c4)n3n2)CC1` (configuration not stated) + CN(C)c1ccc(Nc2c3ccc(NC(=O)CCN4CCCC4)cc3nc3cc(NC(=O)CCN4CCCC4)ccc23)cc1: 55%; for `COc1ncnc(C2CC2)c1-c1ncc2cnn(Cc3ccc(-c4nc(C(F)(F)F)cn4C(C)C)cc3)c2n1` + CN(C)c1ccc(Nc2c3ccc(NC(=O)CCN4CCCC4)cc3nc3cc(NC(=O)CCN4CCCC4)ccc23)cc1: 77.2%; for `O=C(NO)c1cnc(N2CCN(S(=O)(=O)c3ccc4ccccc4c3)CC2)nc1` + CN(C)c1ccc(Nc2c3ccc(NC(=O)CCN4CCCC4)cc3nc3cc(NC(=O)CCN4CCCC4)ccc23)cc1: 34.1%.

The assay is the same for the next values; noted with them: second compound 10 µM; first compound 1 µM; active compounds read low; spheroids with HUVEC and MSC.
For the compound `C=CCn1c(=O)c2cnc(Nc3ccc(N4CCN(C)CC4)cc3)nc2n1-c1cccc(C(C)(C)O)n1` + CN(C)c1ccc(Nc2c3ccc(NC(=O)CCN4CCCC4)cc3nc3cc(NC(=O)CCN4CCCC4)ccc23)cc1, the viability, T/C was 25.7%.
The same measure, in the same setting: the same measure for `CC(C)(O)C1CCC(Nc2ccc3ncc(-c4cccc(C(F)(F)F)c4)n3n2)CC1` (configuration not stated) + CN(C)c1ccc(Nc2c3ccc(NC(=O)CCN4CCCC4)cc3nc3cc(NC(=O)CCN4CCCC4)ccc23)cc1: 48.1%; for `COc1ncnc(C2CC2)c1-c1ncc2cnn(Cc3ccc(-c4nc(C(F)(F)F)cn4C(C)C)cc3)c2n1` + CN(C)c1ccc(Nc2c3ccc(NC(=O)CCN4CCCC4)cc3nc3cc(NC(=O)CCN4CCCC4)ccc23)cc1: 66.5%.
Consider `O=C(NO)c1cnc(N2CCN(S(=O)(=O)c3ccc4ccccc4c3)CC2)nc1` + CN(C)c1ccc(Nc2c3ccc(NC(=O)CCN4CCCC4)cc3nc3cc(NC(=O)CCN4CCCC4)ccc23)cc1, for which the viability, T/C was 2.57%.

Still in this assay, the particulars now being: second compound 10 µM; first compound 3.16 µM; active compounds read low; spheroids with HUVEC and MSC.
With `C=CCn1c(=O)c2cnc(Nc3ccc(N4CCN(C)CC4)cc3)nc2n1-c1cccc(C(C)(C)O)n1` + CN(C)c1ccc(Nc2c3ccc(NC(=O)CCN4CCCC4)cc3nc3cc(NC(=O)CCN4CCCC4)ccc23)cc1, the viability, T/C was 11.2%.
Still for that read-out and setting: for `CC(C)(O)C1CCC(Nc2ccc3ncc(-c4cccc(C(F)(F)F)c4)n3n2)CC1` (configuration not stated) + CN(C)c1ccc(Nc2c3ccc(NC(=O)CCN4CCCC4)cc3nc3cc(NC(=O)CCN4CCCC4)ccc23)cc1 the value was 12.1%; for `COc1ncnc(C2CC2)c1-c1ncc2cnn(Cc3ccc(-c4nc(C(F)(F)F)cn4C(C)C)cc3)c2n1` + CN(C)c1ccc(Nc2c3ccc(NC(=O)CCN4CCCC4)cc3nc3cc(NC(=O)CCN4CCCC4)ccc23)cc1, 61.9%.
On the same count and under the same terms, the same measure for `O=C(NO)c1cnc(N2CCN(S(=O)(=O)c3ccc4ccccc4c3)CC2)nc1` + CN(C)c1ccc(Nc2c3ccc(NC(=O)CCN4CCCC4)cc3nc3cc(NC(=O)CCN4CCCC4)ccc23)cc1: 0.19%.

The assay is the same for the next values; noted with them: second compound 10 µM; first compound 10 µM; active compounds read low; spheroids with HUVEC and MSC.
Take `C=CCn1c(=O)c2cnc(Nc3ccc(N4CCN(C)CC4)cc3)nc2n1-c1cccc(C(C)(C)O)n1` + CN(C)c1ccc(Nc2c3ccc(NC(=O)CCN4CCCC4)cc3nc3cc(NC(=O)CCN4CCCC4)ccc23)cc1: the viability, T/C was 10.8%.
The same measure, in the same setting: the same measure for `CC(C)(O)C1CCC(Nc2ccc3ncc(-c4cccc(C(F)(F)F)c4)n3n2)CC1` (configuration not stated) + CN(C)c1ccc(Nc2c3ccc(NC(=O)CCN4CCCC4)cc3nc3cc(NC(=O)CCN4CCCC4)ccc23)cc1: 10.4%.
Same read-out and setting: for `COc1ncnc(C2CC2)c1-c1ncc2cnn(Cc3ccc(-c4nc(C(F)(F)F)cn4C(C)C)cc3)c2n1` + CN(C)c1ccc(Nc2c3ccc(NC(=O)CCN4CCCC4)cc3nc3cc(NC(=O)CCN4CCCC4)ccc23)cc1 the value was 50.8%.
For the compound `O=C(NO)c1cnc(N2CCN(S(=O)(=O)c3ccc4ccccc4c3)CC2)nc1` + CN(C)c1ccc(Nc2c3ccc(NC(=O)CCN4CCCC4)cc3nc3cc(NC(=O)CCN4CCCC4)ccc23)cc1, the viability, T/C was 0.77%.
